These are literature values, as cited in patent publication US6964946B1, “Oral pharmaceutical compositions containing taxanes and methods of treatment employing the same” (Baker Norton Pharmaceuticals, Inc., priority 1995, dated 2005).

“Also recorded” adds a separate entry of the source.

For data set [1], the system named is protein isoprenylation.
Data set [2] relates to tubulin.

`CC(=O)O[C@H]1C(=O)[C@@]2(C)[C@H]([C@H](OC(=O)c3ccccc3)[C@]3(O)C[C@H](OC(=O)[C@H](O)[C@@H](NC(=O)c4ccccc4)c4ccccc4)C(C)=C1C3(C)C)[C@]1(OC(C)=O)CO[C@@H]1C[C@@H]2O` [Paclitaxel, paclitaxel]: in data set [1], the “level at which inhibition of protein isoprenylation occurs” value is recorded as “about 0.03 μM; also recorded: about 25 ng/ml”. Also, the “level at which inhibition of tubulin disassembly occurs” value in data set [2] is reported as “about 0.1 μM; also recorded: about 85 ng/ml”.
